In US9695155B2, “Herbicidal substituted pyrimidinyloxy benzene compounds” (E. I. DU PONT DE NEMOURS AND COMPANY, priority 2013, dated 2017):

How the values were obtained:
spring barley = assay: Test D preemergence; assay type: in vivo, Hordeum vulgare; settings: Hordeum vulgare, pre-emergence
Outline: (§1)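 Plant response is a visual score from 0 (no effect) to 100 (complete control) relative to controls. Plants were kept in a controlled growth environment for 7 to 21 days after spraying. Preemergence treatments went onto silt loam soil; postemergence ones onto 1- to 4-leaf seedlings.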

winter barley = assay: Test D preemergence; assay type: in vivo, Hordeum vulgare; settings: Hordeum vulgare, pre-emergence
Outline: as §1

wild radish [1] = assay: Test D postemergence; assay type: in vivo, Raphanus raphanistrum; settings: Raphanus raphanistrum, post-emergence
Outline: as §1

wild radish [2] = assay: Test D preemergence; assay type: in vivo, Raphanus raphanistrum; settings: Raphanus raphanistrum, pre-emergence
Outline: as §1

wild oat = assay: Test D preemergence; assay type: in vivo, Avena fatua; settings: Avena fatua, pre-emergence
Excerpt: (§2) Seeds of plant species selected from bluegrass (annual bluegrass, Poa annua), blackgrass (Alopecurus myosuroides), canarygrass (littleseed canarygrass, Phalaris minor), chickweed (common chickweed, Stellaria media), galium (catchweed bedstraw, Galium aparine), bromegrass, downy (downy bromegrass, Bromus tectorum), field poppy (Papaver rhoeas), field violet (Viola arvensis), green foxtail (Setaria viridis), deadnettle (henbit deadnettle, Lamium amplexicaule), Italian ryegrass (Lolium multiflorum), kochia (Kochia scoparia), lambsquarters (Chenopodium album), oilseed rape (Brassica napus), pigweed (Amaranthus retroflexus), chamomile (scentless chamomile, Matricaria inodora), Russian thistle (Salsola kali), speedwell (bird's-eye speedwell, Veronica persica), spring barley (Hordeum vulgare), spring wheat (Triticum aestivum), wild buckwheat (Polygonum convolvulus), wild mustard (Sinapis arvensis), wild oat (Avena fatua), wild radish (Raphanus raphanistrum), windgrass (Apera spica-venti), winter barley (Hordeum vulgare), and winter wheat (Triticum aestivum) were planted into a silt loam soil and treated preemergence with test chemicals formulated in a non-phytotoxic solvent mixture which included a surfactant.
(§3) At the same time, these species were planted in pots containing Redi-Earth® planting medium (Scotts Company, 14111 Scottslawn Road, Marysville, Ohio 43041) comprising spaghnum peat moss, vermiculite, wetting agent and starter nutrients and treated with postemergence applications of the test chemicals formulated in the same manner. Plants ranged in height from 2 to 18 cm (1- to 4-leaf stage). Treated plants and controls were maintained in a controlled growth environment for 7 to 21 days after which time all species were compared to controls and visually evaluated. Plant response ratings, summarized in Table D, are based on a scale of 0 to 100 where 0 is no effect and 100 is complete control. A dash (-) response means no test result.

blackgrass = assay: Test D preemergence; assay type: in vivo, Alopecurus myosuroides; settings: Alopecurus myosuroides, pre-emergence
Excerpt: as §2, §3

chickweed = assay: Test D preemergence; assay type: in vivo, Stellaria media; settings: Stellaria media, pre-emergence
Outline: as §1

windgrass = assay: Test D postemergence; assay type: in vivo, Apera spica-venti; settings: Apera spica-venti, post-emergence
Excerpt: as §2, §3

Italian ryegrass = assay: Test D preemergence; assay type: in vivo, Lolium multiflorum; settings: Lolium multiflorum, pre-emergence
Excerpt: as §2, §3

bromegrass, downy = assay: Test D preemergence; assay type: in vivo, Bromus tectorum; settings: Bromus tectorum, pre-emergence
Excerpt: as §2, §3

field poppy = assay: Test D postemergence; assay type: in vivo, Papaver rhoeas; settings: Papaver rhoeas, post-emergence
Excerpt: as §2, §3

FC(F)(F)c1cn(-c2ccccc2Oc2ncc(Cl)cn2)nn1 [Compound 166, 5-chloro-2-[2-[4-(trifluoromethyl)-1H-1,2,3-triazol-1-yl]phenoxy]pyrimidine]
plant injury at 16 g/ha (spring barley; 16 g ai/ha, scale 0 (no effect) to 100 (complete control), read-out: Plant response rating, Barley, Spring): 0% | plant injury at 31 g/ha (spring barley; 31 g ai/ha, scale 0-100, read-out: Plant response rating, Barley, Spring): 0% | plant injury at 62 g/ha (spring barley; 62 g ai/ha, scale 0-100, read-out: Plant response rating, Barley, Spring): 30% | plant injury at 125 g/ha (spring barley; 125 g ai/ha, scale 0-100, read-out: Plant response rating, Barley, Spring): 60% | plant injury at 16 g/ha (winter barley; 16 g ai/ha, scale 0 (no effect) to 100 (complete control), read-out: Plant response rating, Barley, Winter): 0% | plant injury at 31 g/ha (winter barley; 31 g ai/ha, scale 0-100, read-out: Plant response rating, Barley, Winter): 0% | plant injury at 62 g/ha (winter barley; 62 g ai/ha, scale 0-100, read-out: Plant response rating, Barley, Winter): 35% | plant injury at 125 g/ha (winter barley; 125 g ai/ha, scale 0-100, read-out: Plant response rating, Barley, Winter): 50% | pest or weed control at 16 g/ha (wild radish [1]; 16 g ai/ha, scale 0-100, read-out: Plant response rating, Radish, Wild): 70% | pest or weed control at 31 g/ha (wild radish [1]; 31 g ai/ha, scale 0 to 100 (0 no effect, 100 complete control), read-out: Plant response rating, Radish, Wild): 70% | pest or weed control at 62 g/ha (wild radish [1]; 62 g ai/ha, scale 0 to 100 (0 no effect, 100 complete control), read-out: Plant response rating, Radish, Wild): 95% | pest or weed control at 125 g/ha (wild radish [1]; 125 g ai/ha, scale 0 to 100 (0 no effect, 100 complete control), read-out: Plant response rating, Radish, Wild): 95% | pest or weed control at 16 g/ha (wild radish [2]; 16 g ai/ha, scale 0 (no effect) to 100 (complete control), read-out: Plant response rating, Radish, Wild): 55% | pest or weed control at 31 g/ha (wild radish [2]; 31 g ai/ha, scale 0 (no effect) to 100 (complete control), read-out: Plant response rating, Radish, Wild): 80% | pest or weed control at 62 g/ha (wild radish [2]; 62 g ai/ha, scale 0-100, read-out: Plant response rating, Radish, Wild): 100% | pest or weed control at 125 g/ha (wild radish [2]; 125 g ai/ha, scale 0-100, read-out: Plant response rating, Radish, Wild): 100% | pest or weed control at 16 g/ha (wild oat; 16 g ai/ha, scale 0 (no effect) to 100 (complete control), read-out: Plant response rating, Oat, Wild): 0% | pest or weed control at 31 g/ha (wild oat; 31 g ai/ha, scale 0-100, read-out: Plant response rating, Oat, Wild): 30% | pest or weed control at 62 g/ha (wild oat; 62 g ai/ha, scale 0-100, read-out: Plant response rating, Oat, Wild): 55% | pest or weed control at 125 g/ha (wild oat; 125 g ai/ha, scale 0-100, read-out: Plant response rating, Oat, Wild): 75% | pest or weed control at 16 g/ha (blackgrass; 16 g ai/ha, scale 0 (no effect) to 100 (complete control), read-out: Plant response rating, Blackgrass): 10% | pest or weed control at 31 g/ha (blackgrass; 31 g ai/ha, scale 0-100, read-out: Plant response rating, Blackgrass): 55% | pest or weed control at 62 g/ha (blackgrass; 62 g ai/ha, scale 0-100, read-out: Plant response rating, Blackgrass): 70% | pest or weed control at 125 g/ha (blackgrass; 125 g ai/ha, scale 0-100, read-out: Plant response rating, Blackgrass): 95% | pest or weed control at 16 g/ha (chickweed; 16 g ai/ha, scale 0 (no effect) to 100 (complete control), read-out: Plant response rating, Chickweed): 85% | pest or weed control at 31 g/ha (chickweed; 31 g ai/ha, scale 0-100, read-out: Plant response rating, Chickweed): 95% | pest or weed control at 62 g/ha (chickweed; 62 g ai/ha, scale 0-100, read-out: Plant response rating, Chickweed): 95% | pest or weed control at 125 g/ha (chickweed; 125 g ai/ha, scale 0-100, read-out: Plant response rating, Chickweed): 100% | pest or weed control at 16 g/ha (windgrass; 16 g ai/ha, scale 0-100, read-out: Plant response rating, Windgrass): 15% | pest or weed control at 31 g/ha (windgrass; 31 g ai/ha, scale 0 to 100 (0 no effect, 100 complete control), read-out: Plant response rating, Windgrass): 25% | pest or weed control at 62 g/ha (windgrass; 62 g ai/ha, scale 0 to 100 (0 no effect, 100 complete control), read-out: Plant response rating, Windgrass): 35% | pest or weed control at 125 g/ha (windgrass; 125 g ai/ha, scale 0 to 100 (0 no effect, 100 complete control), read-out: Plant response rating, Windgrass): 55% | pest or weed control at 16 g/ha (Italian ryegrass; 16 g ai/ha, scale 0 (no effect) to 100 (complete control), read-out: Plant response rating, Ryegrass, Italian): 20% | pest or weed control at 31 g/ha (Italian ryegrass; 31 g ai/ha, scale 0 (no effect) to 100 (complete control), read-out: Plant response rating, Ryegrass, Italian): 40% | pest or weed control at 62 g/ha (Italian ryegrass; 62 g ai/ha, scale 0-100, read-out: Plant response rating, Ryegrass, Italian): 60% | pest or weed control at 125 g/ha (Italian ryegrass; 125 g ai/ha, scale 0-100, read-out: Plant response rating, Ryegrass, Italian): 85% | pest or weed control at 16 g/ha (bromegrass, downy; 16 g ai/ha, scale 0 (no effect) to 100 (complete control), read-out: Plant response rating, Bromegrass, Downy): 5% | pest or weed control at 31 g/ha (bromegrass, downy; 31 g ai/ha, scale 0-100, read-out: Plant response rating, Bromegrass, Downy): 5% | pest or weed control at 62 g/ha (bromegrass, downy; 62 g ai/ha, scale 0-100, read-out: Plant response rating, Bromegrass, Downy): 25% | pest or weed control at 125 g/ha (bromegrass, downy; 125 g ai/ha, scale 0-100, read-out: Plant response rating, Bromegrass, Downy): 50% | pest or weed control at 16 g/ha (field poppy; 16 g ai/ha, scale 0-100, read-out: Plant response rating, Field Poppy): 40% | pest or weed control at 31 g/ha (field poppy; 31 g ai/ha, scale 0 to 100 (0 no effect, 100 complete control), read-out: Plant response rating, Field Poppy): 60% | pest or weed control at 62 g/ha (field poppy; 62 g ai/ha, scale 0 to 100 (0 no effect, 100 complete control), read-out: Plant response rating, Field Poppy): 80% | pest or weed control at 125 g/ha (field poppy; 125 g ai/ha, scale 0 to 100 (0 no effect, 100 complete control), read-out: Plant response rating, Field Poppy): 75%
